According to patent US20110305715A1, “ANTIBODIES TO 3-HYDROXYCOTININE AND METHODS OF USE THEREOF” (priority 2010, published 2011):
Converted amounts (≈) assume the structure as drawn.

Tested on: 3-Hydroxycotinine MAb 22H9C7
Assay: Competitive microplate ELISA (test principle #1) with immobilized 3HC MAb and 3HC-HRP tracer
Settings: calculated from IC50 values, 3-Hydroxycotinine MAb 22H9C7
Experimental: (§1) Competitive microplate EIA for quantification of COT (A) and 3HC (B) by test principle #1. Different concentrations of COT or 3HC and fifteen other NIC metabolites were incubated with an immobilized COT MAb or 3HC MAb in the presence of a constant amount of COT-HRP or 3HC-HRP. The binding of the COT-HRP or 3HC-HRP to its corresponding MAb was detected by the reaction of the HRP with peroxidase substrate. The graph illustrates an inhibition curve that was formed with various concentrations of authentic COT (A) and 3HC (B). Apparent COT or 3HC concentrations are inversely related to the OD450 value.
As for the anti-cotinine monoclonal antibody, above, specificity and sensitivity of the anti-3-hydroxycotinine monoclonal antibody (3HC MAb) was determined in competitive microplate ELISA with 3HC and a battery of NIC metabolites and tobacco alkaloids using 3HC-HRP as tracer. […] Apparent 3HC concentrations are inversely related to the OD450 value.

Row | SMILES | Reactivity (%)
1 | CN1C(=O)C(O[C@@H]2O[C@H](C(=O)O)[C@@H](O)[C@H](O)[C@H]2O)CC1c1cccnc1 (stereo partly drawn) [3-Hydroxycotinine-gluconuride, 3-hydroxycotinine-glucuronide] | <1
2 | CN1C(=O)C(O)C[C@H]1c1cccnc1 (stereo partly drawn) [3-Hydroxycotinine] | 100
3 | CN1C(=O)CC[C@@]1(O)c1cccnc1 [5-Hydroxycotinine] | <1
4 | CN1C(=O)CC[C@H]1c1ccc[n+]([O-])c1 [Cotinine-N-Oxide, cotinine-N-oxide] | <1
5 | CN1C(=O)CCC1c1ccc[n+](C2OC(C(=O)[O-])C(O)C(O)C2O)c1 (stereo not drawn) [Cotinine-gluconuride, cotinine-glucuronide] | <1
6 | CN1C(=O)CC[C@H]1c1cccnc1 [Cotinine] | <1
7 | CN1CCCC1c1ccc[n+]([O-])c1 (stereo not drawn) [Nicotine-N-Oxide, Nicotine-N-oxide] | <1
8 | CN1CCC[C@H]1c1ccc[n+]([C@@H]2O[C@H](C(=O)[O-])[C@@H](O)[C@H](O)[C@H]2O)c1 [Nicotine-gluconuride, Nicotine-glucuronide] | <1
9 | CN1CCCC1c1cccnc1 (stereo not drawn) [Nicotine] | <1

Same assay, conditions: competitor vs 3HC-HRP for 3-Hydroxycotinine MAb 22H9C7

Row | SMILES | IC50
10 | CN1C(=O)C(O[C@@H]2O[C@H](C(=O)O)[C@@H](O)[C@H](O)[C@H]2O)CC1c1cccnc1 (stereo partly drawn) [3-Hydroxycotinine-gluconuride, 3-hydroxycotinine-glucuronide] | >5,000 ng/mL
11 | CN1C(=O)C(O)C[C@H]1c1cccnc1 (stereo partly drawn) [3-Hydroxycotinine] | 39.8 ng/mL (≈ 0.207 µM)
12 | CN1C(=O)CC[C@@]1(O)c1cccnc1 [5-Hydroxycotinine] | >5,000 ng/mL
13 | c1cncc(C2=NCCCC2)c1 [Anabaseine] | >5,000 ng/mL
14 | C1=CCC(c2cccnc2)NC1 (stereo not drawn) [Anatabine] | >5,000 ng/mL
15 | CN1C(=O)CC[C@H]1c1ccc[n+]([O-])c1 [Cotinine-N-Oxide, cotinine-N-oxide] | >5,000 ng/mL
16 | CN1C(=O)CCC1c1ccc[n+](C2OC(C(=O)[O-])C(O)C(O)C2O)c1 (stereo not drawn) [Cotinine-gluconuride, cotinine-glucuronide] | >5,000 ng/mL
17 | CN1C(=O)CC[C@H]1c1cccnc1 [Cotinine] | >5,000 ng/mL
18 | c1cncc(C2=NCCC2)c1 [Myosmine] | >5,000 ng/mL
19 | c1cncc(-c2ccnc(-c3cccnc3)c2)c1 [Nicotelline] | >5,000 ng/mL
20 | CN1CCCC1c1ccc[n+]([O-])c1 (stereo not drawn) [Nicotine-N-Oxide, Nicotine-N-oxide] | >5,000 ng/mL
21 | CN1CCC[C@H]1c1ccc[n+]([C@@H]2O[C@H](C(=O)[O-])[C@@H](O)[C@H](O)[C@H]2O)c1 [Nicotine-gluconuride, Nicotine-glucuronide] | >5,000 ng/mL
22 | CN1CCCC1c1cccnc1 (stereo not drawn) [Nicotine] | >5,000 ng/mL
23 | Cn1cccc1-c1cccnc1 [Nicotyrine] | >5,000 ng/mL
24 | O=C1CCC(c2cccnc2)N1 (stereo not drawn) [Norcotinine] | >5,000 ng/mL
25 | c1cncc([C@@H]2CCCN2)c1 [Nornicotine] | >5,000 ng/mL

Tested on: Cotinine MAb 3B11A4
Assay: Competitive microplate ELISA (test principle #1) with immobilized COT MAb and COT-HRP tracer
Type: binding
Settings: calculated from IC50 values, Cotinine MAb 3B11A4
Experimental: as §1
Specificity and sensitivity of the anti-cotinine monoclonal antibody (COT MAb) were determined in competitive microplate ELISA with COT and a battery of NIC metabolites and tobacco alkaloids using COT-HRP as tracer. […] Apparent COT concentrations are inversely related to the OD450 value.

Row | SMILES | Reactivity (%)
26 | CN1C(=O)C(O[C@@H]2O[C@H](C(=O)O)[C@@H](O)[C@H](O)[C@H]2O)CC1c1cccnc1 (stereo partly drawn) [3-Hydroxycotinine-gluconuride, 3-hydroxycotinine-glucuronide] | <1.5
27 | CN1C(=O)C(O)C[C@H]1c1cccnc1 (stereo partly drawn) [3-Hydroxycotinine] | 1.86
28 | CN1C(=O)CC[C@@]1(O)c1cccnc1 [5-Hydroxycotinine] | 4.39
29 | c1cncc(C2=NCCCC2)c1 [Anabaseine] | <1.5
30 | C1=CCC(c2cccnc2)NC1 (stereo not drawn) [Anatabine] | <1.5
31 | CN1C(=O)CC[C@H]1c1ccc[n+]([O-])c1 [Cotinine-N-Oxide, cotinine-N-oxide] | <1.5
32 | CN1C(=O)CCC1c1ccc[n+](C2OC(C(=O)[O-])C(O)C(O)C2O)c1 (stereo not drawn) [Cotinine-gluconuride, cotinine-glucuronide] | <1.5
33 | CN1C(=O)CC[C@H]1c1cccnc1 [Cotinine] | 100
34 | c1cncc(C2=NCCC2)c1 [Myosmine] | <1.5
35 | c1cncc(-c2ccnc(-c3cccnc3)c2)c1 [Nicotelline] | <1.5
36 | CN1CCCC1c1ccc[n+]([O-])c1 (stereo not drawn) [Nicotine-N-Oxide, Nicotine-N-oxide] | <1.5
37 | CN1CCC[C@H]1c1ccc[n+]([C@@H]2O[C@H](C(=O)[O-])[C@@H](O)[C@H](O)[C@H]2O)c1 [Nicotine-gluconuride, Nicotine-glucuronide] | <1.5
38 | CN1CCCC1c1cccnc1 (stereo not drawn) [Nicotine] | <1.5
39 | Cn1cccc1-c1cccnc1 [Nicotyrine] | <1.5
40 | O=C1CCC(c2cccnc2)N1 (stereo not drawn) [Norcotinine] | <1.5
41 | c1cncc([C@@H]2CCCN2)c1 [Nornicotine] | <1.5

Same assay, conditions: competitor vs COT-HRP for Cotinine MAb 3B11A4

Row | SMILES | IC50
42 | CN1C(=O)C(O[C@@H]2O[C@H](C(=O)O)[C@@H](O)[C@H](O)[C@H]2O)CC1c1cccnc1 (stereo partly drawn) [3-Hydroxycotinine-gluconuride, 3-hydroxycotinine-glucuronide] | >5,000 ng/mL
43 | CN1C(=O)C(O)C[C@H]1c1cccnc1 (stereo partly drawn) [3-Hydroxycotinine] | 3545.0 ng/mL (≈ 18.4 µM)
44 | CN1C(=O)CC[C@@]1(O)c1cccnc1 [5-Hydroxycotinine] | 1505.2 ng/mL (≈ 7.83 µM)
45 | c1cncc(C2=NCCCC2)c1 [Anabaseine] | >5,000 ng/mL
46 | C1=CCC(c2cccnc2)NC1 (stereo not drawn) [Anatabine] | >5,000 ng/mL
47 | CN1C(=O)CC[C@H]1c1ccc[n+]([O-])c1 [Cotinine-N-Oxide, cotinine-N-oxide] | >5,000 ng/mL
48 | CN1C(=O)CCC1c1ccc[n+](C2OC(C(=O)[O-])C(O)C(O)C2O)c1 (stereo not drawn) [Cotinine-gluconuride, cotinine-glucuronide] | >5,000 ng/mL
49 | CN1C(=O)CC[C@H]1c1cccnc1 [Cotinine] | 66.1 ng/mL (≈ 0.375 µM)
50 | c1cncc(C2=NCCC2)c1 [Myosmine] | >5,000 ng/mL
51 | c1cncc(-c2ccnc(-c3cccnc3)c2)c1 [Nicotelline] | >5,000 ng/mL
52 | CN1CCCC1c1ccc[n+]([O-])c1 (stereo not drawn) [Nicotine-N-Oxide, Nicotine-N-oxide] | >5,000 ng/mL
53 | CN1CCC[C@H]1c1ccc[n+]([C@@H]2O[C@H](C(=O)[O-])[C@@H](O)[C@H](O)[C@H]2O)c1 [Nicotine-gluconuride, Nicotine-glucuronide] | >5,000 ng/mL
54 | CN1CCCC1c1cccnc1 (stereo not drawn) [Nicotine] | >5,000 ng/mL
55 | Cn1cccc1-c1cccnc1 [Nicotyrine] | >5,000 ng/mL
56 | O=C1CCC(c2cccnc2)N1 (stereo not drawn) [Norcotinine] | >5,000 ng/mL
57 | c1cncc([C@@H]2CCCN2)c1 [Nornicotine] | >5,000 ng/mL
